Data as given in patent publication US20190031599A1, “INDANE DERIVATIVES AS MGLUR7 MODULATORS” (Takeda Pharmaceutical Company Limited, priority 2016, published 2019).

Target: T1, human mGluR7 (Homo sapiens, UniProt Q14831)
T1 construct: expressed in transfected cells
Assay: mGluR7 assay: CRE-directed luciferase reporter gene assay, reduction of forskolin stimulated cAMP production
Type: cell-based
Conditions: stable CHO cell line expressing the CRE-luc reporter and human mGluR7 genes; decrease of forskolin stimulated luminescence; 10-point concentration-response, duplicate wells
In short: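 Stable CHO cell line co-expressing human mGluR7 and a CRE-luciferase reporter; compounds preincubated 15 min at 37 °C, then forskolin added and incubated 5 h at 37 °C. 10-point half-log concentration-response in duplicate, normalised to forskolin-alone (max) and forskolin plus tool mGluR7 agonist (min) controls.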

T1 sequence (Q14831 35-915): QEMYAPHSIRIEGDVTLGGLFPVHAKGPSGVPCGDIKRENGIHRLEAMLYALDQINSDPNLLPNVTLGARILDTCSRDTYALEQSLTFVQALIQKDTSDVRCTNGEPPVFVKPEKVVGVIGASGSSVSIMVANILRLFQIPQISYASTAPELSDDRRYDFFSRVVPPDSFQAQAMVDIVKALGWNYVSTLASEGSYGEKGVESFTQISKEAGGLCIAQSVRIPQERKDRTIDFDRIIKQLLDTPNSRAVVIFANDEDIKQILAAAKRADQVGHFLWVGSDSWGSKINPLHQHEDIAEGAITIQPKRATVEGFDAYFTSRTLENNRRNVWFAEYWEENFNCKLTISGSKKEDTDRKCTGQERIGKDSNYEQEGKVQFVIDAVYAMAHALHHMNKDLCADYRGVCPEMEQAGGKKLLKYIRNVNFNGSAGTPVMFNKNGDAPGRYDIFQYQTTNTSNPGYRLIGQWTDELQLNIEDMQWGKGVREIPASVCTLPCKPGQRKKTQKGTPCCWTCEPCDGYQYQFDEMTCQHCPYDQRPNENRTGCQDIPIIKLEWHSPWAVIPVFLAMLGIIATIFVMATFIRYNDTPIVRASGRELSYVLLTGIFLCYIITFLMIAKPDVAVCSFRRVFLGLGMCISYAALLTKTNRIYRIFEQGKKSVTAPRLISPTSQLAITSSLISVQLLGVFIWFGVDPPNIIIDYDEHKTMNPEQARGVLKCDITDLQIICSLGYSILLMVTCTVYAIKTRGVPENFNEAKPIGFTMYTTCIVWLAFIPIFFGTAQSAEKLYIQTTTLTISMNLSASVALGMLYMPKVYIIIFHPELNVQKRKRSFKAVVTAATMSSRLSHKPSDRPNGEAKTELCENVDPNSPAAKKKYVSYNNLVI

Structure (SMILES)	EC50 [nM]
N[C@H]1c2ccccc2C[C@@H]1NC(=O)C(c1ccc(F)cc1F)N1CCC1 (stereo partly drawn) [Example 108, N-[(1S,2S)-1-amino-2,3-dihydro-1H-inden-2-yl]-2-(azetidin-1-yl)-2-(2,4-difluorophenyl)acetamide]	190
N[C@H]1c2ccccc2C[C@@H]1NC(=O)C1(c2ccccc2)CCNC1 (stereo partly drawn) [Example 120, N-[(1S,2S)-1-amino-2,3-dihydro-1H-inden-2-yl]-3-phenylpyrrolidine-3-carboxamide]	3320
N[C@H]1c2ccccc2C[C@@H]1NC(=O)C1(c2ccccc2)CNC(=O)C1 (stereo partly drawn) [Example 122, N-[(1S,2S)-1-amino-2,3-dihydro-1H-inden-2-yl]-5-oxo-3-phenylpyrrolidine-3-carboxamide]	485
CC(C(=O)N[C@H]1Cc2ccccc2[C@@H]1NC(=O)OC(C)(C)C)c1ccc(OC(F)F)cc1 (stereo partly drawn) [Example 151, tert-butyl N-[(1S,2S)-2-{2-[4-(difluoromethoxy)phenyl]propanamido}-2,3-dihydro-1H-inden-1-yl]carbamate]	441
COc1cc(F)ccc1C(C)C(=O)N[C@H]1Cc2ccccc2[C@@H]1NC(=O)OC(C)(C)C (stereo partly drawn) [Example 152, tert-butyl N-[(1S,2S)-2-[2-(4-fluoro-2-methoxyphenyl)propanamido]-2,3-dihydro-1H-inden-1-yl]carbamate]	183
CC(C(=O)N[C@H]1Cc2ccccc2[C@@H]1NC(=O)OC(C)(C)C)c1ccc(F)cc1C(F)(F)F (stereo partly drawn) [Example 154, tert-butyl N-[(1S,2S)-2-{2-[4-fluoro-2-(trifluoromethyl)phenyl]propanamido}-2,3-dihydro-1H-inden-1-yl]carbamate]	326
CN[C@@H]1c2ccccc2C[C@H]1NC(=O)[C@H](C)c1ccc(F)cc1 [Example 155, (2R)-2-(4-fluorophenyl)-N-[(1R,2R)-1-(methylamino)-2,3-dihydro-1H-inden-2-yl]propanamide]	2220
CN[C@H]1c2ccccc2C[C@@H]1NC(=O)[C@H](C)c1ccc(F)cc1 [Example 157, (2R)-2-(4-fluorophenyl)-N-[(1S,2S)-1-(methylamino)-2,3-dihydro-1H-inden-2-yl]propanamide]	1380
CN[C@@H]1c2ccccc2C[C@@H]1NC(=O)[C@@H](C)c1ccc(F)cc1 [Example 160, (2S)-2-(4-fluorophenyl)-N-[(1R,2S)-1-(methylamino)-2,3-dihydro-1H-inden-2-yl]propanamide]	5940

The remaining lines, values ahead:

EC50 [nM]	Structure (SMILES)
12	COC1CN(C(C(=O)N[C@H]2Cc3ccccc3[C@@H]2NC(=O)OC(C)(C)C)c2ccc(F)cc2F)C1 (stereo partly drawn) [Example 104, tert-butyl N-[(1S,2S)-2-[2-(2,4-difluorophenyl)-2-(3-methoxyazetidin-1-yl)acetamido]-2,3-dihydro-1H-inden-1-yl]carbamate]
146	N[C@H]1c2ccccc2C[C@@H]1NC(=O)C(c1ccc(F)cc1F)N1CC(F)C1 (stereo partly drawn) [Example 105, N-[(1S,2S)-1-amino-2,3-dihydro-1H-inden-2-yl]-2-(2,4-difluorophenyl)-2-(3-fluoroazetidin-1-yl)acetamide]
135	COC1CN(C(C(=O)N[C@H]2Cc3ccccc3[C@@H]2N)c2ccc(F)cc2F)C1 (stereo partly drawn) [Example 111, N-[(1S,2S)-1-amino-2,3-dihydro-1H-inden-2-yl]-2-(2,4-difluorophenyl)-2-(3-methoxyazetidin-1-yl)acetamide]
11	C[C@H](C(=O)N[C@@H]1Cc2ccccc2[C@H]1N1CC(F)C1)c1ccc(F)cc1 [Example 112, (2S)—N-[(1R,2R)-1-(3-fluoroazetidin-1-yl)-2,3-dihydro-1H-inden-2-yl]-2-(4-fluorophenyl)propanamide]
38	C[C@H](C(=O)N[C@@H]1Cc2ccccc2[C@H]1S(C)(=O)=O)c1ccc(F)cc1 [Example 113, (2S)-2-(4-fluorophenyl)-N-[(1R,2R)-1-methanesulfonyl-2,3-dihydro-1H-inden-2-yl]propanamide]
101	C[C@H](C(=O)N[C@H]1Cc2ccccc2[C@@H]1N(Cc1ncco1)Cc1ncco1)c1ccc(F)cc1F [Example 114, (2S)—N-[(1S,2S)-1-{bis[(1,3-oxazol-2-yl)methyl]amino}-2,3-dihydro-1H-inden-2-yl]-2-(2,4-difluorophenyl)propanamide]
63	N[C@H]1c2ccccc2C[C@@H]1NC(=O)C(c1ccc(F)cc1F)N1CC(OC(F)F)C1 (stereo partly drawn) [Example 119, N-[(1S,2S)-1-amino-2,3-dihydro-1H-inden-2-yl]-2-[3-(difluoromethoxy)azetidin-1-yl]-2-(2,4-difluorophenyl)acetamide]
42	CC(C)(C)OC(=O)N[C@H]1c2ccccc2C[C@@H]1NC(=O)C1(c2ccccc2)CNC(=O)C1 (stereo partly drawn) [Example 121, tert-butyl N-[(1S,2S)-2-(5-oxo-3-phenylpyrrolidine-3-amido)-2,3-dihydro-1H-1-inden-1-yl]carbamate]
68	CC(C)(C)OC(=O)N[C@H]1c2ccccc2C[C@@H]1NC(=O)C1(c2ccccc2)CC(=O)C1 [Example 123, tert-butyl N-[(1S,2S)-2-(3-oxo-1-phenylcyclobutaneamido)-2,3-dihydro-1H-inden-1-yl]carbamate]
5	C[C@H](C(=O)N[C@H]1Cc2ccccc2[C@@H]1S(C)(=O)=O)c1ccc(F)cc1 [Example 132, (2S)-2-(4-fluorophenyl)-N-[(1S,2S)-1-methanesulfonyl-2,3-dihydro-1H-inden-2-yl]propanamide]
178	C[C@H](C(=O)N[C@H]1Cc2ccccc2[C@@H]1Nc1ncccn1)c1ccc(F)cc1F [Example 133, (2S)-2-(2,4-difluorophenyl)-N-[(1S,2S)-1-[(pyrimidin-2-yl)amino]-2,3-dihydro-1H-inden-2-yl]propanamide]
86	CCN[C@H]1c2ccccc2C[C@@H]1NC(=O)[C@@H](C)c1ccc(F)cc1 [Example 134, (2S)—N-[(1S,2S)-1-(ethylamino)-2,3-dihydro-1H-inden-2-yl]-2-(4-fluorophenyl)propanamide]
63	CC(C(=O)N[C@H]1Cc2ccccc2[C@@H]1NC(=O)OC(C)(C)C)c1ccc(F)cc1Cl (stereo partly drawn) [Example 153, tert-butyl N-[(1S,2S)-2-[2-(2-chloro-4-fluorophenyl)propanamido]-2,3-dihydro-1H-inden-1-yl]carbamate]
